In patent publication US10426850B2, “Collagen mimetic peptides for targeting collagen strands for in vitro and in vivo imaging and therapeutic use” (The Johns Hopkins University, priority 2011, dated 2019):
Values belong to the molecule of their own block, whether it stands above or below them. Non-standard residues stand in square brackets, D forms with d. No end group written: not given here. *: point of attachment. IRDye800CW = CC1(C)C(/C=C/C2=C(Oc3ccc(S(=O)(=O)O)cc3)C(=C/C=C3/N(CCCCS(=O)(=O)O)c4ccc(S(=O)(=O)O)cc4C3(C)C)/CCC2)=[N+](CCCCCC(=O)*)c2ccc(S(=O)(=O)[O-])cc21; Hyp = O=C(O)[C@@H]1C[C@@H](O)CN1; CF = 5(6)-carboxyfluorescein; Ahx = NCCCCCC(=O)O

Tests used:
[1] = Circular dichroism spectra and thermal melting of CMPs; assay type: physicochemical; settings: for Tm (CD melting curve, triple helix): after UV exposure (photo-decaged), heating rate 60° C./hr, Tm about 10° C. higher than equilibrium Tm
Method: Circular dichroism spectroscopy. CD spectra were collected on JASCO 715 spectrophotometer equipped with a JASCO PTC-348 WI temperature controller and quartz cells (0.1 mm path length). CMP solutions (320 μL, 150 μM in 1×PBS) were stored at 4° C. for at least 24 hours before measurement. For photo-decaging, samples were exposed to 365 nm UV light for at least 30 minutes before the 4° C. incubation. The thermal melting studies were performed by measuring the ellipticity at 225 nm with 60° C./hr heating rate. Raw CD signal was normalized to mean residue ellipticity based on the peptide's length and concentration (Biopolymers 95:94-104 (2011)). Melting temperatures (Tm) were determined by fitting the mean residue ellipticity to a two-state model (Org Lett 8:4735-4738 (2006)). To measure the refolding kinetics, CMP solution was thermally denatured at 75° C. for 10 minutes in a cuvette and rapidly quenched to 25° C. in an ice-water bath, after which the CD signal at 225 nm was observed over time at 25° C. The CD spectra of intact and MMP-1 cleaved type I collagen (FIG. 12) was measured in 90 μg/mL protein solutions in 20 mM acetic acid buffer at 22° C. The 37° C. thermal stability profile (FIG. 2E, inset) was generated by monitoring the ellipticity at 222 nm immediately after transferring the cuvette to a temperature controlled cuvette holder pre-set to 37° C. The Tm values reported in this study are approximately 10° C. higher than the equilibrium Tm due to high heating rate (60° C./hr) (Biopolymers 73:682-688 (2004)).
Synthesis of fluorescently labeled collagen mimetic peptides. Non-caged CMPs were synthesized using Fmoc-mediated solid-phase chemistry by manual or automated synthesis as described previously.2,4 The caged NB(GPO)9 (SEQ ID NO: 12) was prepared by introducing Fmoc(N-o-nitrobenzyl)Gly-OH (synthesized according to Tatsu et al. 2,5) in the middle of the standard solid-phase peptide synthesis. The Hyp residue following the NBGly was conjugated using 9 molar equiv of Fmoc-Hyp(tBu)-OH, 8.8 molar equiv of PyBroP, and 20 molar equiv of DIPEA for over 24 hr to overcome the low reactivity caused by the steric hindrance of the NB cage group. The remaining sequence including the GGG spacer was completed by HBTU chemistry, followed by on-resin labeling with 6 molar equivalent of CF or TAMRA activated by 6 molar equivalent of PyAOP for over 24 hr. The full length fluorescent CMPs were cleaved from resin by treating the resin with TFA/TIS/H2O (95:2.5:2.5) for 3 hr and the cleaved peptide was purified by reverse phase HPLC on a Vydac C18 column using a linear gradient mixture of water (0.1% TFA) and acetonitrile (0.1% TFA) (5-45% acetonitrile gradient in 40 min). The purified peptides were analyzed by MALDI-TOF MS (FIG. 27): m/z calculated 2975.1 [M+Na+] for CF(GPO)9 (SEQ ID NO: 10), found 2975.0 [M+Na+]; m/z calculated 2975.1 [M+Na+] for ^SG9P9O9 (SEQ ID NO: 5), found 2973.5 [M+Na+]; m/z calculated 3110.2 [M+Na+] for CF^NB(GPO)9 (SEQ ID NO: 4), found 3109.4 [M+Na+]; m/z calculated 2975.1 [M+Na+] for CF(GPO)9 (SEQ ID NO: 10) [CF^NB(GPO)9 (SEQ ID NO: 4) after UV decaging], found 2974.1 [M+Na+]; m/z calculated 3142.3 [M+H+] for TAMRA-NB(GPO)9 (SEQ ID NO: 12), found 3141.4 [M+H+]; m/z calculated 3007.2 [M+H+] for TAMRA-(GPO)9 (SEQ ID NO: 15), [TAMRA-NB(GPO)9 (SEQ ID NO: 12) after decaging], found 3006.3 [M+H+]. CD spectra and CD melting curves of the labeled CMPs were acquired in PBS solutions using a JASCO 715 CD spectrophotometer. The solutions were incubated for at least 24 hours at 4° C. prior to CD experiment to ensure folding (FIG. 28).

[2] = target: T1, type I collagen films (fibrillar collagen) (Rattus norvegicus, UniProt P02454+P02466); test: Photo-triggered CMP binding assay on collagen films; settings: 4° C., overnight incubation
T1 construct: Collagen solution (200 μL, 3.71 mg/mL, type I rat tail, BD Science); purchased BD Science; host or cells: rat tail
T1 sequence (P02454 152-1207 limits assumed): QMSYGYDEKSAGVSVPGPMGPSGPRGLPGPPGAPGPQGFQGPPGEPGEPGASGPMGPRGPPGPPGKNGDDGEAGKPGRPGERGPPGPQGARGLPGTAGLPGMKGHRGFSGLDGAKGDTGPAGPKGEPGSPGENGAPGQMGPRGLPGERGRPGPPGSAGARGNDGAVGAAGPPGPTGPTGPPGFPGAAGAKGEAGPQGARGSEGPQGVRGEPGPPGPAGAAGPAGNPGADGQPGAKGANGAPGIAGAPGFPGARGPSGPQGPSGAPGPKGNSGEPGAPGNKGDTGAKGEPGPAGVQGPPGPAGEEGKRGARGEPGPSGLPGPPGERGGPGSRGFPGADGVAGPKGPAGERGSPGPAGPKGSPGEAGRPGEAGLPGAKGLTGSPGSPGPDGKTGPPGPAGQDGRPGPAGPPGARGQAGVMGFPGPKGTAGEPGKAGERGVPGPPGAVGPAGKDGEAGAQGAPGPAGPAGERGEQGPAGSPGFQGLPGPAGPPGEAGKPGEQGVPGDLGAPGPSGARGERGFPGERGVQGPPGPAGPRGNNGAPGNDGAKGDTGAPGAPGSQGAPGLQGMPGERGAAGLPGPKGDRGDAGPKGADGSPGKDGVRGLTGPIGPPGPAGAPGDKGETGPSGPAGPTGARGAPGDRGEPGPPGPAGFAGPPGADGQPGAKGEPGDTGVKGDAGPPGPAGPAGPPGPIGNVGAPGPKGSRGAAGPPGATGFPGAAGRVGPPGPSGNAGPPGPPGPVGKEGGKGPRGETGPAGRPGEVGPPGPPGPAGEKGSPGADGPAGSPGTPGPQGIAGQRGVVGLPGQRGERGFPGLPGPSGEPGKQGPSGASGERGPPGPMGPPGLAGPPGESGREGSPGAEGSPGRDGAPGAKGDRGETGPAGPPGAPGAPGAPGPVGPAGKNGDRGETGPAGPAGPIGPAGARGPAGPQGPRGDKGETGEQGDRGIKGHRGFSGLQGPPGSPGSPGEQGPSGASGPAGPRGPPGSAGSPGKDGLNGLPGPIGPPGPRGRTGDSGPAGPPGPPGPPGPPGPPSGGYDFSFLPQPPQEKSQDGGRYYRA
T1 sequence (P02466 86-1125 limits assumed): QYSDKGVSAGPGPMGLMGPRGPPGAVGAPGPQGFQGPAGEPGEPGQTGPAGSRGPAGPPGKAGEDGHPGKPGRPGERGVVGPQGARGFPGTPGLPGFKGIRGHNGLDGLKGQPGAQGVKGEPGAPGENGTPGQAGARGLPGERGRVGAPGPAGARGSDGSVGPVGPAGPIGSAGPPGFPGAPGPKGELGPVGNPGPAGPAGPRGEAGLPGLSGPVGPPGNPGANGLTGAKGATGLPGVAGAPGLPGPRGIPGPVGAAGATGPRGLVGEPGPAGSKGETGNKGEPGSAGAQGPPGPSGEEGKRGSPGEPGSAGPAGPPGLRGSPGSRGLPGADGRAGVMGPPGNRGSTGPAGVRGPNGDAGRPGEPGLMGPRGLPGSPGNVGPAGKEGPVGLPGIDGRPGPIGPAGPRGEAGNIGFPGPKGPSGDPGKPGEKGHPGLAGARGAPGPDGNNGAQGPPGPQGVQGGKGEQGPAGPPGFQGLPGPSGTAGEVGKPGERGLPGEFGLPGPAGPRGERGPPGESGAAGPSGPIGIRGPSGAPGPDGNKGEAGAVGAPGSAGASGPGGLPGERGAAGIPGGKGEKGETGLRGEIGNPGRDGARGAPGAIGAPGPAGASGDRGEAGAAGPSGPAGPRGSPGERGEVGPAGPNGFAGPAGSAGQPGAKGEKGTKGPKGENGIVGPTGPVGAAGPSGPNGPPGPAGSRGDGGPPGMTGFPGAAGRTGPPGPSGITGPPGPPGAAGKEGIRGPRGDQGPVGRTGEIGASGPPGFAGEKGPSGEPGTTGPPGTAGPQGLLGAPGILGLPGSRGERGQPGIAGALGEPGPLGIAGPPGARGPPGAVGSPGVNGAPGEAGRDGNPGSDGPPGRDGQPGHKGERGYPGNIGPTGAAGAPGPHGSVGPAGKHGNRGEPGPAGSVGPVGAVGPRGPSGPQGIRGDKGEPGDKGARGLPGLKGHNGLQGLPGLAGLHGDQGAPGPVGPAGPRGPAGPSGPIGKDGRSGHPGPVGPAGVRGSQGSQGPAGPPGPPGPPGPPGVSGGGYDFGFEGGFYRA
Method: (§1) Collagen/gelatin binding assays. Collagen solution (200 μL, 3.71 mg/mL, type I rat tail, BD Science) in 0.02 N acetic acid was added to each well of a 96-well black/clear-bottom plate (Costar) and air-dried. To make gelatin films, the same collagen solution was denatured at 70° C. for 15 minutes before applying to the well. The dried films were neutralized and washed with 1×PBS buffer (pH 7.4) and deionized water. PBS solution of carboxyfluorescein-labeled caged CMP (40 μL, 50 μM, unless indicated otherwise) pre-equilibrated at 4° C. was added onto each reconstituted collagen or gelatin film and exposed to 365 nm UV light (10 mW/cm^2, from mercury arc lamp) for 11 minutes on ice. Wells for the UV-negative control groups were covered with aluminum foil to block UV exposure. After incubation at 4° C. for over 3 hours (unless indicated otherwise), the unbound materials were removed by rinsing with PBS buffer and deionized water. The films were allowed to dry in dark, after which the fluorescence (ex: 489 nm, em: 533 nm) was measured with a SpectraMax Gemini XPS microplate reader (Molecular Devices). Each binding experiment was done in triplicate.

[3] = target: T2, thermally-denatured collagen (gelatin) films (Rattus norvegicus, UniProt P02454+P02466); test: Photo-triggered CMP binding assay on gelatin films; settings: after photo-cleavage, type I gelatin films
T2 construct: To make gelatin films, the same collagen solution was denatured at 70° C. for 15 minutes; purchased BD Science; host or cells: rat tail
T2 sequence (P02454 152-1207 limits assumed): as the sequence (P02454 152-1207 limits assumed) above
T2 sequence (P02466 86-1125 limits assumed): as the sequence (P02466 86-1125 limits assumed) above
Method: as §1

[4] = test system: Panc02 and Panc198 tumors; test: In vivo tumor targeting, NIRF imaging, pancreatic xenografts; design: species or system mouse; settings: approximately 4 nmol, tail vein; 96 hr post injection
Method: Murine Panc02 and human Panc198 cells were acquired from the ATCC (Rockville, Md.) and cultured in RPMI1640 supplemented with 10% FBS, 10 μg/mL of streptomycin and 10 I.U./mL of penicillin at 37° C. in 5% CO2 and humidified air until 80-95% confluence. The cells were then trypsinized and formulated at either 2×10^6 cells/100 μL (Panc198) or 1×10^6 cells/100 μL (Panc02) followed by subcutaneous inoculation into 12-week-old female athymic nu/nu mice (NCI). Panc198 and Panc02 cells were inoculated subcutaneously behind the left and right shoulder, respectively. When the Panc02 xenograft reached 4-6 mm in diameter (˜2 weeks after inoculation), each mouse was intravenously administered with solution containing 4 nmol of photo-activated IR-Ahx-(GPO)9 (SEQ ID NO: 9) or IR-Ahx-^SG9P9O9 (SEQ ID NO: 8) and 1 nmol of cysteine, followed by MMPsense injection and NIRF imaging as described.

[5] = test system: PC-3 prostate tumor xenografts (PC3-PIP, PC3-flu); test: In vivo tumor targeting, NIRF imaging, prostate xenografts; design: species or system mouse; settings: 3.7 nmol, tail vein, UV-activated, imaging over four days (to 96 hours PI)
[6] = test system: collagen remodeling in bones and cartilages; settings: 4 nmol intravenous, photo-decaged, four days after injection
[7] = target: T3, mouse type IV collagen (denatured, reduced, in SDS-PAGE) (mouse, UniProt P02463 28-1669; P08122 26-1707); test: fluorescent staining of SDS-PAGE gel
T3 construct: also called collagen type IV

[8] = target: T4, MMP-1 cleaved type I collagen (3/4 and 1/4 fragments) (rat, UniProt P02454 152-1207; P02466 86-1125); test: fluorescent staining of SDS-PAGE gel
T4 construct: Tested kept at 22 C, after 1 min at 37 C (spontaneously denatured), and as denatured bands in SDS-PAGE; also called MMP-1 digested collagens; MMP-Col
T4 sequence (P02454 152-1207, chain 1 of 2): as the sequence (P02454 152-1207 limits assumed) above
T4 sequence (P02466 86-1125, chain 2 of 2): as the sequence (P02466 86-1125 limits assumed) above

Molecule: IR-Ahx-^SG9P9O9: IRDye-800CW labeled sequence-scrambled control peptide with Ahx spacer, SEQ ID NO: 8 ({IRDye800CW-Ahx}-PGPGPGPPPPGPGPPPGPPPGGPPPPG; numbers in words are those of the source; also: 9 O residues (G9P9O9), places not given here)
tumor accumulation (NIRF imaging) [4]: no peptide accumulation | tumor accumulation (in vivo NIRF imaging) [5]: minimal accumulation at the tumor sites | tumor accumulation (in vivo NIRF imaging) ([5]; listed as IR-Ahx-SG9P9O9): cleared out | triple helical folding capacity (CD melting) ([1]; sequence-scrambled peptide): no triple helix forming capacity

Molecule: IR′-Ahx-^SG9P9O9: IRDye 680RD labeled sequence-scrambled peptide, SEQ ID NO: 8 ({IRDye 680RD-Ahx}-PGPGPGPPPPGPGPPPGPPPGGPPPPG; not fully specified; numbers in words are those of the source; also: 9 O residues (G9P9O9), places not given here)
skeletal uptake (whole body NIRF) [6]: signal only from the digestive system

Other lines, results leading:

Tm (CD melting curve, triple helix) [1]: 51 °C
Molecule: CF-GGG-(GPP)4^NBGPP(GPP)4 [CF^NB(GPP)9]

UV triggered collagen binding as fraction of that of CF^NB(GPP)9 [2]: about one fourth | level of gelatin binding relative to CF^NB(GPP)9 [3]: an order of magnitude lower | Tm (CD melting curve, triple helix) [1]: 51 °C
Molecule: CF-GGG-(G^DP^DP)4^NBG^DP^DP(G^DP^DP)4 [CF^NB(G^DP^DP)9]

binding result [7]: no binding (tested: 6 µM) | binding result [8]: no binding (tested: 6 µM)
B1: CF^SG9P9O9, sequence-scrambled control peptide, CF-GGG-PGOGPGPOPOGOGOPPGOOPGGOOPPG (peptide)
peptide: {CF}-GGGPG[Hyp]GPGP[Hyp]P[Hyp]G[Hyp]G[Hyp]PPG[Hyp][Hyp]PGG[Hyp][Hyp]PPG
notes: Cannot fold into a triple helix; also called ^9G9P9O9; ^CG9P9O9
